Results published in patent US11452718B2 (AVALYN PHARMA INC., priority 2012, dated 2022).
Where “and” joins values, the source holds several entries; their conditions need not be identical. Equal values may be shown once. Entries after “also recorded” stand apart in the source; their conditions may differ. Read-outs that look alike come from different tables or passages of the source.

Legend:
[1] = Bleomycin model of pulmonary fibrosis: right lung hydroxyproline content, left lung fibrosis score; type: in vivo, Wistar rats; details: Wistar, rat, plasma, read-out: Plasma AUCO-2 hrs
Experimental: (§1) To compare anti-fibrotic efficacy between extended-duration intratracheal, direct-lung aerosol administration and oral gavage, the bleomycin model of pulmonary fibrosis was performed. Doses for this study were selected based upon pharmacokinetic parameters obtained in Table 22 (from Example 8). Briefly, Wistar rats (175-225 grams) were administered bleomycin by the intratracheal route using a Penn Century MicroSprayer® catheter. On the seventh day following bleomycin exposure, animals initiated treatment with either saline or pirfenidone. Animals were dosed once a day on days 7 through 28, and euthanized on day 29. Pirfenidone was administered either intratracheally using Penn Century MicroSprayer catheter or by oral gavage. Sham and bleomycin control groups received either no treatment or intratracheal saline by Penn Century MicroSprayer catheter. While dosing more frequently (or less frequently) may improve the observed effects, anesthesia required for intratracheal administration reduced animal weight gain (reduced food intake) and, thus limited dosing to once a day for this study. Because anesthesia reduced weight gain, all study animals (intratracheal, oral and control) received once-a-day isoflurane using the same technique and duration. Twelve animals were enrolled into each dosing group. […] Oral gavage was administered in a single 300 mcL volume. Due to technical restrictions, instead of the mg/kg dose being equally split between six 50 mcL administrations over 2 minutes, intratracheal administration was performed with three equal 50 mcL volumes administered every 40 seconds over the same period. For dose selection, data from Table 22 was extrapolated. On day 29, animals were euthanized. Right lungs were extracted and measured for hydroxyproline content, while left lungs were subjected to histology. Histological sections were stained with picrosirius red and scored for lung tissue fibrosis. Twenty random photographs of each stained lung tissue section were taken, blinded and scored by an independent review panel. Observations were pooled for analysis. […] Doses selected for this study targeted critical pharmacokinetic parameters from the comparator oral route (matching lung tissue Cmax or plasma AUC). These targets were selected from a pharmacokinetic study wherein lung tissue and plasma were collected and pirfenidone levels were compared. In these studies, lung tissue Cmax following intratracheal administration was always the first collected time point. It is important to consider that the duration of time required to collect this first lung tissue may not accurately capture the true lung Cmax. […] It was this pharmacokinetic point that the above Cmax for dosing was selected. If it was possible to collect lung tissue earlier, the Cmax may be higher. As the Penn Century MicroSprayer catheter delivers nearly the entire loaded dose, the possible delivered Cmax in these studies may be higher. […] In this study, we divided the dose into thirds.

[2] = system: bleomycin model of pulmonary fibrosis; experiment: as above; type: in vivo, Wistar rats; details: for Average Hydroxyproline, difference from bleomycin control: sham-subtracted
Experimental: as §1

[3] = system: CYP2C9, 2C19, 2D6, and 2E1; details: hepatic microsomes; cited from earlier work
[4] = system: proliferation of fibroblasts; LPS-stimulated release of PDGF, TNF-alpha and TGF-beta1; collagen synthesis; details: depending on the assay conditions; cited from earlier work
CYP1A2 = biological target: T1, CYP1A2 (Homo sapiens, UniProt P05177); details: hepatic microsomes; cited from earlier work
T1 construct: In vitro metabolism studies with hepatic microsomes; from tissue; host or cells: hepatic microsomes
T1 sequence (P05177 whole entry): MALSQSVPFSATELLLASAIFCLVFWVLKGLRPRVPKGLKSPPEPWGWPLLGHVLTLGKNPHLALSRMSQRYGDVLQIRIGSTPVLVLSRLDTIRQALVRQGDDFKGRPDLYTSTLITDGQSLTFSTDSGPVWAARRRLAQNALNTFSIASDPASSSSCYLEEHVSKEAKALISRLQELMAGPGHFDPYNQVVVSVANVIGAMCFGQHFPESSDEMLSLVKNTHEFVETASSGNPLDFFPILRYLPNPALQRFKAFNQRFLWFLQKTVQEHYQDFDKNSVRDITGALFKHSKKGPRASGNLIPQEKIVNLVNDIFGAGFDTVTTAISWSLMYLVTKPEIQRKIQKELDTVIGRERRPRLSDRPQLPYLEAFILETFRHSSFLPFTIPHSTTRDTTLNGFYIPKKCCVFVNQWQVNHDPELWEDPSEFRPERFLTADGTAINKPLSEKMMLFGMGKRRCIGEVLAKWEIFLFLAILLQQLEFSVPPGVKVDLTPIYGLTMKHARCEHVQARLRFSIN

[5] = Co-solvent and surfactant effects on pirfenidone solubility; type: physicochemical
Experimental: Each sample was agitated at ambient temperature overnight. The samples were visually inspected and appearance recorded. Samples were centrifuged to sediment any un-dissolved material and the supernatant withdrawn via syringe through a 0.22 μm PVDF filter. […] The remaining filtered sample was split into three equal volumes in glass vials and placed at 25° C./60RH, 40° C./75RH and refrigeration. Samples are wrapped in aluminum foil to reduce light exposure. After the first night of incubation, samples are briefly visually inspected for any signs of discoloration or precipitate formation.

[6] = cited from earlier work; for oral Cmax / Cmax: IPF patients; for Cmax: read-out: oral Cmax
[7] = Rubino et al., cited from earlier work
[8] = Pharmacokinetics and lung-tissue distribution after oral gavage or intratracheal aerosol; type: in vivo, Sprague-Dawley rats; details: for Lung AUC: for time >1 μg/g
Experimental: Solutions were vortexed until all crystals dissolved. […] Plasma samples were taken at pre-dose, 0.08, 0.16, 0.25, 0.5, 0.75, 1.0, 1.5, 2, 4, and 6 hours post dosing. For lung tissue samples, eight additional rats were also dosed 70 mg/kg by the oral route. Lungs were taken at pre-dose 0.08, 0.5, 2, and 4 hours post dosing. Materials were extracted and pirfenidone quantitated as μg/mL plasma and μg/gram lung tissue. […]

[9] = bolus aerosol intratracheal 1 mg/kg
[10] = bolus aerosol intratracheal 5 mg/kg

Structure (SMILES): Cc1ccc(=O)n(-c2ccccc2)c1 [pirfenidone, 5-methyl-1-phenyl-2-(1H)-pyridone]
- AUC ([1]; inhaled or intranasal, Bleomycin + IT 0.9 mg/kg): 3000 ng·h/mL
- AUC ([1]; inhaled or intranasal, Bleomycin + IT 3.0 mg/kg): 7700 ng·h/mL
- AUC ([1]; inhaled or intranasal, Bleomycin + IT 6.4 mg/kg): 16500 ng·h/mL
- AUC ([1]; Bleomycin + PO 30 mg/kg): 16600 ng·h/mL
- AUC ([1]; Bleomycin + PO 100 mg/kg): 29600 ng·h/mL
- possible lung tissue Cmax ([2]; 0.9 mg/kg intratracheal dose divided into thirds): about 50 mcg/gram lung tissue
- possible lung tissue Cmax ([2]; 0.9 mg/kg intratracheal dose to a 250 gram rat, lung about 1.5 grams, whole dose): ≤ 150 mcg/gram
- anti-fibrotic efficacy ([2]; 3.0 mg/kg intratracheal, direct lung aerosol rat dose): no observed pirfenidone efficacy
- Lung Tissue AUC0-2 hrs ([2]; Bleomycin + IT 0.9 mg/kg): 2.6 µg·h/g
- Lung Tissue Cmax ([2]; Bleomycin + IT 0.9 mg/kg): 11.6 µg/g
- Average Hydroxyproline, difference from bleomycin control ([2]; Bleomycin + IT 0.9 mg/kg): −0.70*, **** mg/rightlung
- Lung Tissue AUC0-2 hrs ([2]; Bleomycin + IT 3.0 mg/kg): 7.3 µg·h/g
- Lung Tissue Cmax ([2]; Bleomycin + IT 3.0 mg/kg): 33.5 µg/g
- Average Hydroxyproline, difference from bleomycin control ([2]; Bleomycin + IT 3.0 mg/kg): −0.02**, **** mg/rightlung
- Lung Tissue AUC0-2 hrs ([2]; Bleomycin + IT 6.4 mg/kg): 15.5 µg·h/g
- Lung Tissue Cmax ([2]; Bleomycin + IT 6.4 mg/kg): 71.5 µg/g
- Average Hydroxyproline, right lung ([2]; Bleomycin + IT 6.4 mg/kg once a day, days 7 through 28): 3.50 mg/right lung
- Average Hydroxyproline, difference from bleomycin control ([2]; Bleomycin + IT 6.4 mg/kg): −0.08***, **** mg/rightlung
- Lung Tissue AUC0-2 hrs ([2]; Bleomycin + PO 30 mg/kg): 18.2 µg·h/g
- Lung Tissue Cmax ([2]; Bleomycin + PO 30 mg/kg): 11.8 µg/g
- Lung Tissue AUC0-2 hrs ([2]; Bleomycin + PO 100 mg/kg): 34.4 µg·h/g
- Lung Tissue Cmax ([2]; Bleomycin + PO 100 mg/kg): 33.6 µg/g
- anti-fibrotic efficacy, direct lung delivery versus oral ([2]; intratracheal aerosol versus oral gavage): more efficacious (less fibrosis and less hydroxyproline)
- contribution of each isoenzyme to metabolism [3]: less than 13%
- lower end of concentrations at which in vitro activities were evident [4]: about 30 microM; also recorded: about 5.5 mcg/mL
- upper end of concentrations at which in vitro activities were evident [4]: about 10 mM; also recorded: about 1.85 mg/mL
- share of pirfenidone metabolised via the enzyme (CYP1A2): approximately 48%
- Pirfenidone Saturation Solubility ([5]; 4% EtOH, 0.1% CPB, 95.9% water, pH 4.9): 20.2 mg/mL
- effect of co-solvent on saturation solubility ([5]; ethanol (EtOH) or propylene glycol (PG)): increase the saturation solubility
- effect of co-solvents on saturation solubility ([5]; ethanol and propylene glycol together): additive effect in increasing the saturation solubility
- duration of plasma level at or greater than 5 mcg/mL ([6]; 801 mg oral pirfenidone): 4 h
- oral Cmax ([6]; fasting-state): about 15.7 mcg/mL
- Cmax ([6]; fasting-state): ~84 µM
- oral Cmax ([6]; recommended fed-state): about 7.9 mcg/mL
- Cmax ([6]; recommended fed-state): ~42 µM
- change in Tmax by food ([6]; oral, fed-state): seven-fold increase
- reduction in Cmax by food ([6]; oral, fed-state): ~50%
- reduction in overall exposure (AUC) by food ([6]; oral, fed-state): 10-15% and ~20%
- T1/2 beta ([7]; lung tissue (derived solely from plasma T1/2), aerosol 110 mg RDD, 2009 fasted-state): 2.5 h
- T1/2 beta ([7]; lung tissue (derived solely from plasma T1/2), aerosol 154 mg RDD, 2009 fasted-state): 2.5 h
- T1/2 beta ([7]; lung tissue (derived solely from plasma T1/2), aerosol 185 mg RDD, 2009 fasted-state): 2.5 h
- T1/2 beta ([7]; lung tissue (derived solely from plasma T1/2), oral 801 mg, fasted-state, 2009): 2.5 h
- T1/2 beta ([7]; lung tissue (derived solely from plasma T1/2), oral 801 mg, fed-state, 2009): 2.4 h
- T1/2 beta ([7]; plasma, aerosol 110 mg RDD, 2009 fasted-state): 2.5 h
- T1/2 beta ([7]; plasma, aerosol 154 mg RDD, 2009 fasted-state): 2.5 h
- T1/2 beta ([7]; plasma, aerosol 185 mg RDD, 2009 fasted-state): 2.5 h
- T1/2 beta ([7]; plasma, oral 801 mg, fasted-state, 2009): 2.5 h
- T1/2 beta ([7]; plasma, oral 801 mg, fed-state, 2009): 2.4 h
- Lung TOE: time of exposure over 1 μg/g lung tissue [8, 9]: 5 min
- Lung Cmax ([8]; bolus aerosol intratracheal 1 mg/kg, immediate post-dose calculated from the direct-lung delivered dose): 101 µg/g
- Lung TOE: time of exposure over 1 μg/g lung tissue [8, 10]: 84 min
- Lung Cmax ([8]; bolus aerosol intratracheal 5 mg/kg, immediate post-dose calculated from the direct-lung delivered dose): 508 µg/g
- Lung AUC [8, 9]: 5.2 mg·h/kg
- Lung AUC [8, 10]: 25.4 mg·h/kg
- Lung AUC ([8]; oral 70 mg/kg): 4.3 mg·h/kg
- Lung Cmax ([8]; oral 70 mg/kg): 3.6 µg/g
- Lung TOE: time of exposure over 1 μg/g lung tissue ([8]; oral 70 mg/kg): 89 min
